Tests used:
Type in all cases: physicochemical
[1] = Degradation of sevoflurane with activated alumina at three moisture levels, gas chromatography; details: 50 mg aluminum oxide; 20, 100, 260 ppm water; 60° C., 22 hours; FIG. 1
Description: Type III glass consists mainly of silicon dioxide, calcium oxide, sodium oxide and aluminum oxide. Aluminum oxide is a known Lewis acid The glass matrix is normally inert to sevoflurane. However, under certain conditions (anhydrous, acidic), the glass surface can be attacked or altered, exposing sevoflurane to active Lewis acid sites such as aluminum oxide.
The effect of water on the degradation of sevoflurane was studied by adding various amounts of activated alumina to 20 ml of sevoflurane containing the following three levels of moisture: 1) 20 ppm water—measured water, no additional water added; 2) 100 ppm—spiked; and 3) 260 ppm water—spiked.
It will be appreciated that 20 ppm Water is equivalent to […] w/w Water. The samples were placed at 60° C. and analyzed by gas chromatography after 22 hours.

[2] = Degradation of sevoflurane in ampules by heat with and without added water; details: Type I clear ampule autoclaved at 119° C. for three hours
Description: Approximately 20 mL of sevoflurane was added to a 50 mL Type I clear ampule and approximately 20 mL of sevoflurane and 1300 ppm of water was added to a second ampule. Both ampules were flame-sealed and then autoclaved at 119° C. for three hours. The contents of the two ampules were then analyzed by gas chromatography.

[3] = Degradation of sevoflurane in ampules, water-spiked studies (109 ppm to 951 ppm), autoclaved; details: ampules in Set A and Set B, autoclaved at 119° C. for three hours
Description: Type I clear glass ampules were used to study the effect of various levels of water in inhibiting the degradation of sevoflurane. Approximately 20 mL of sevoflurane and different levels of water ranging from about 109 ppm to about 951 ppm were added to each ampule. The ampules were then sealed. A total of ten ampules were filled with sevoflurane and varying amounts of water. Five of the ampules were included in Set A and the other five ampules were included in Set B. The ampules were then autoclaved at 119° C. for three hours. Samples in Set A were placed on a mechanical shaker overnight to allow the moisture to coat the glass surface. Samples in Set B were prepared without equilibrating the water with the glass surface. Several control samples were also prepared. Two non-autoclaved ampules (Control Ampule 1 and Control Ampule 2) and a bottle (Control bottle) were each filled with 20 mL of sevoflurane. No water was added to any of the control samples. Also, the controls samples were not shaken overnight. The levels of hexafluoroisopropanol (HFIP) and total degradants (including methyleneglycol bishexafluoroisopropyl ether, dimethyleneglycol bishexafluoroisopropyl ether, methyleneglycol fluoromethyl hexafluoro isopropyl ether) were measured by gas chromatography.

[4] = Degradation of water-spiked sevoflurane in ampules at 60° C. or 40° C.
Description: Type I clear glass ampules were employed to study the effect of various levels of water and temperature in inhibiting the degradation of sevoflurane. Approximately 20 mL of sevoflurane and different levels of water ranging from about 109 ppm to about 951 ppm were added to each ampule. The ampules were then flame-sealed. To accelerate the degradation process, samples from each moisture level were placed at two heating conditions. Samples were placed on 60° C. stability station for 144 hours or placed on a 40° C. stability station for 200 hours. The resulting sevoflurane in each of the samples was analyzed by gas chromatography and pH. Hexafluoroisopropyl alcohol (HFIP) and the total degradants of sevoflurane were measured.

[5] = Sevoflurane degradation in activated Type III amber glass bottles, 20 ppm vs 400 ppm water
Description: The extent of the degradation of sevoflurane in each of the bottles from Example 5 were quantified by gas chromatography. The ten bottles were divided into two groups, the Control Sevo Group (containing bottles 2, 3, 5, 7, 8) and the Study Sevo Group (containing Bottles 1, 4, 6, 9, 10).
All ten bottles were re-rinsed several times with non-degraded sevoflurane containing about 20 ppm of water. For the five Control Sevo Group bottles, 100 mL of sevoflurane containing about 20 ppm of water was added to each bottle. For the five Study Group bottles, 100 mL of sevoflurane containing about 400 ppm of water (spiked) was added to each bottle.
Gas chromatography for all samples was performed at time zero and after heating at 50° C. for 18 hours. Hexafluoroisopropyl alcohol (HFIP), dimethyleneglycol bishexafluoroisopropyl ether (P2) and total degradants were measured.

[6] = Sevoflurane degradation in activated Type III amber glass bottles pre-treated with water-saturated sevoflurane; details: activated glass surface treated with water saturated-sevoflurane prior to heating
Description: Sevoflurane was decanted from the five bottles of the Study Sevo Group from Example 6. Each bottle was rinsed thoroughly with fresh sevoflurane. Approximately 125 mL of water-saturated sevoflurane was then put into each bottle. The five bottles were then placed on a mechanical roller for approximately two hours to allow the water to coat the activated glass surfaces. The water-saturated sevoflurane was then drained form each bottle and replaced by 100 mL of sevoflurane containing 400 (spiked) ppm of water. Gas chromatography analysis for all samples was performed after heating at 50° C. for 18 hours, 36 hours, and 178 hours. bishexafluoroisopropyl ether (P2) and total degradants were measured.

degradation of sevoflurane ([2]; first ampule, no water added, FIG. 2): degraded
degradation of sevoflurane ([2]; second ampule, 1300 ppm of water, FIG. 3): did not degrade
water sufficient to inhibit the degradation of sevoflurane [3]: at least 595 ppm
water levels that inhibit degradation of sevoflurane ([4]; 40° C. for 200 hours): higher than 206 ppm
water levels that inhibit degradation of sevoflurane ([4]; 60° C. for 144 hours or longer): higher than 303 ppm
HFIP concentration ([5]; Study Sevo Group (400 ppm water)): quite high
amounts of degradants P2 and S1 ([5]; Study Sevo Group (400 ppm water) compared with Control Group (20 ppm water)): much less
degradation of sevoflurane ([5]; Study Sevo Group (400 ppm water), 50° C. for 18 hours): significantly reduced
degradation of sevoflurane (degradant S1) ([5]; addition of 400 ppm of water, activated amber glass bottles, Examples 5 and 6, FIG. 5): inhibited
degradation of sevoflurane (degradant P2) ([5]; addition of 400 ppm of water, activated type III amber glass bottles, Examples 5 and 6, FIG. 4): inhibited
degradation of sevoflurane ([5]; zero hour, compared to zero-hour results in Table 4): no significant degradation
degradation of sevoflurane [6]: greatly inhibited
Compound: FCOC(C(F)(F)F)C(F)(F)F [sevoflurane, fluoromethyl-2,2,2-trifluoro-1-(trifuoromethyl)ethyl ether]
degradation of sevoflurane [1]: decreases with increasing amounts of water

Reference: US6677492B2, “Fluoroether compositions and methods for inhibiting their degradation in the presence of a Lewis acid” (Abbott Laboratories, priority 1997, dated 2004)
